Experimental data taken from article PMC11470414, “In vitro assessment of Dracocephalum lindbergii for growth inhibition, apoptosis induction, and cytokine modulation against Leishmaniamajor” (Heliyon, 2024).
≈ marks a conversion by molar mass, not a printed value. Read-outs that look alike come from different tables or passages of the source.

What was measured:
[1] = system: L. major intramacrophage amastigotes; test: Anti-amastigote activity: counting Leishman bodies in 100 Giemsa-stained macrophages; type: cell-based, Leishmania major; conditions: for IC50: Leishmania major, Macrophage
Experimental: To assess the leishmanicidal effect on L. major intramacrophage amastigotes, macrophages (10⁷ cells) were cultured for 24 h. Subsequently, 200 μL of metacyclic promastigotes were introduced to the macrophages at a 10:1 ratio. […] The cells were washed with 50 μL PBS to eliminate free parasites, fixed with methanol, and stained using Giemsa. The IC₅₀, defined as the concentration required to inhibit 50 % of the leishmanial organisms, was determined by counting Leishman bodies (amastigotes) in 100 macrophages under an optical microscope. All experiments were performed in triplicate.
To evaluate the leishmanicidal effects on L. major intramacrophage amastigotes, macrophages (1 × 10⁷ cells) were cultured for 24 h. Following this, 200 μL of metacyclic promastigotes were added to the macrophages at a 10:1 ratio. […] The cells were then washed with 50 μL PBS to remove any free parasites, fixed in methanol, and stained with Giemsa. The IC₅₀, or the concentration that inhibits 50 % of the leishmanial organisms, was assessed by counting Leishman bodies (amastigotes) in 100 macrophages under an optical microscope. Each experiment was conducted in triplicate, including negative controls (macrophages and parasites without treatment) and positive controls (macrophages and parasites treated with a known effective drug) for comparison.

[2] = system: L. major amastigotes; test: Apoptotic profile by flow cytometry (PE-Annexin V / 7-AAD); type: cell-based, Leishmania major; conditions: 100 μg/mL, vs negative control P < 0.001
Experimental: Apoptosis in L. major amastigotes was evaluated using flow cytometry with the BD Annexin V/PE Apoptosis Detection Kit (Fisher Scientific). […] After treatment, the parasites were washed with PBS and incubated in the dark at 25 °C with 5 μL of PE-Annexin V and 7 μL of 7-AAD for 15 min. The proportion of apoptotic parasites was then evaluated using FlowJo software.

[3] = system: L. major promastigotes; test: Anti-promastigote activity (MTT, IC50); type: cell-based, Leishmania major; conditions: for IC50: Leishmania major
Experimental: (§1) To assess the impact of the D. lindbergii fraction on L. major promastigotes, amastigotes, and macrophages, cell viability was determined using the 3-(4,5-dimethylthiazol-2-yl)-2,5-diphenyl tetrazolium bromide (MTT). L. major in the logarithmic growth phase (1 × 10⁶) was plated in a 96-well microplate using RPMI-1640 medium supplemented with 10 % FBS and treated with different concentrations of the samples. The plates were then incubated. Subsequently, 10 μL of MTT (Sigma Chemical Co., St. Louis, MO) at a concentration of 5 mg/mL was added to each well. After incubation, DMSO was added to stop the reactions, and the optical density (OD) absorbance of the samples was measured at 570 nm using an ELISA plate reader (BioTek Company, USA). The results were analyzed by calculating the inhibition percentage through linear regression.
Drug susceptibility assays were conducted using promastigotes in the logarithmic growth phase. A volume of 90 μL of cultured L. major promastigotes (1 × 10⁶ cells/mL) was transferred to each well of a 96-well microplate. […] The reactions were stopped, ELISA readings were taken, and the IC₅₀ (50 % inhibitory concentration) was calculated according to established protocols.

[4] = Toxicity on macrophages (MTT, CC50); type: cell-based; conditions: human, THP-1 macrophage cell line
Experimental: (§2) The promastigote form of L. major (MRHO/IR/75/ER), the national standard isolate, was obtained from the Pasteur Institute of Iran and cultured at 25 °C in RPMI-1640 medium containing 10 % heat-inactivated FBS and 1 % penicillin/streptomycin. The THP-1 macrophage cell line, provided by the Kerman Leishmaniasis Research Center, was grown in Dulbecco's Modified Eagle Medium (DMEM) supplemented with 10 % FBS and 0.5 % antibiotics (Sigma, Poole, UK), and incubated at 37 °C with 5 % CO₂ [21].
as §1

[5] = system: macrophage cell line (THP-1); test: Toxicity on macrophages (MTT, CC50); type: cell-based
Experimental: as §2, §1

[6] = system: L. major; set-up: method as in PMID 33531168; conditions: after 16 h of incubation; control 14 %; cited from earlier work
[7] = DPPH radical-scavenging antioxidant assay; conditions: DPPH method, 517 nm
Experimental: The scavenging effect on 2,2-diphenyl-1-picrylhydrazyl (DPPH) free radicals was determined based on the reduction of DPPH as a stable free radical. The optical densities were measured at a wavelength of 517 nm. The elimination of free radicals was calculated using the following formula:= (absorbance of control-absorbance of the sample) / (absorbance of control) × 100.

In the case of meglumine antimoniate [MAT], the “Amastigote (24 h) IC50 ± SD” value ([1]; 24 h) is reported as 127.3 ± 14.9, the “average number of intramacrophage amastigotes (Mean ± SD)” value (shortened to “average number … (Mean ± SD)”) ([1]; 24 h, 12.5 μg/mL) is reported as 31.1 ± 4.2 and the “average number … (Mean ± SD)” value ([1]; 24 h, 25 μg/mL) is reported as 22.3 ± 3.1. For the same compound, the “average number … (Mean ± SD)” value ([1]; 24 h, 50 μg/mL) was 18.6 ± 2.5, the “average number … (Mean ± SD)” value ([1]; 24 h, 100 μg/mL) was 11.4 ± 2.2 and the “average number … (Mean ± SD)” value ([1]; 24 h, 200 μg/mL) was 2.1 ± 0.1. The “average number … (Mean ± SD)” value ([1]; 24 h, 400 μg/mL) was 0.0 ± 0.0, the “Amastigote (48h) IC50 ± SD” value ([1]; 48 h) was 112.6 ± 9.5 and the “average number … (Mean ± SD)” value ([1]; 48 h, 12.5 μg/mL) was 39.6 ± 1.1. For the same compound, the “average number … (Mean ± SD)” value ([1]; 48 h, 25 μg/mL) was 27.6 ± 1.8, the “average number … (Mean ± SD)” value ([1]; 48 h, 50 μg/mL) was 18.4 ± 2.0 and the “average number … (Mean ± SD)” value ([1]; 48 h, 100 μg/mL) was 8.6 ± 0.9. The “average number … (Mean ± SD)” value ([1]; 48 h, 200 μg/mL) was 2.2 ± 0.4, the “average number … (Mean ± SD)” value ([1]; 48 h, 400 μg/mL) was 0.0 ± 0.0 and the “Amastigote (72h) IC50 ± SD” value ([1]; 72 h) was 93.6 ± 15.2. For the same compound, the “average number … (Mean ± SD)” value ([1]; 72 h, 12.5 μg/mL) was 49.3 ± 5.7, the “average number … (Mean ± SD)” value ([1]; 72 h, 25 μg/mL) was 40.3 ± 6.4 and the “average number … (Mean ± SD)” value ([1]; 72 h, 50 μg/mL) was 31.2 ± 4.1. For the same compound, the “average number … (Mean ± SD)” value ([1]; 72 h, 100 μg/mL) was 18.4 ± 2.5, the “average number … (Mean ± SD)” value ([1]; 72 h, 200 μg/mL) was 8.6 ± 0.2 and the “average number … (Mean ± SD)” value ([1]; 72 h, 400 μg/mL) was 0.0 ± 0.0. The “induction of apoptosis in intra-macrophage amastigotes” value [2] was “significant induction of apoptosis”, the “Promastigote (24 h) IC50 ± SD” value ([3]; 24 h) was 301.8 ± 24.3 and the “Promastigote (48h) IC50 ± SD” value ([3]; 48 h) was 286.2 ± 17.3. The “Promastigote (72h) IC50 ± SD” value ([3]; 72 h) was 251.6 ± 28.4.

With `C[C@@H]1[C@H](O)[C@@H](C)/C=C/C=C/C=C/C=C/C=C/C=C/C=C/[C@H](O[C@@H]2O[C@H](C)[C@@H](O)[C@H](N)[C@@H]2O)C[C@@H]2O[C@](O)(C[C@@H](O)C[C@@H](O)[C@H](O)CC[C@@H](O)C[C@@H](O)CC(=O)O[C@H]1C)C[C@H](O)[C@H]2C(=O)O` [Amphotericin B] the “average number … (Mean ± SD)” value ([1]; 24 h, 12.5 μg/mL) was 34.2 ± 3.6, the “average number … (Mean ± SD)” value ([1]; 24 h, 25 μg/mL) was 25.3 ± 4.2 and the “average number … (Mean ± SD)” value ([1]; 24 h, 50 μg/mL) was 20.4 ± 1.8. The “average number … (Mean ± SD)” value ([1]; 24 h, 100 μg/mL) was 13.6 ± 2.6, the “average number … (Mean ± SD)” value ([1]; 24 h, 200 μg/mL) was 3.6 ± 0.4 and the “average number … (Mean ± SD)” value ([1]; 24 h, 400 μg/mL) was 0.0 ± 0.0. The “average number … (Mean ± SD)” value ([1]; 48 h, 12.5 μg/mL) was 41.4 ± 3.0, the “average number … (Mean ± SD)” value ([1]; 48 h, 25 μg/mL) was 30.1 ± 2.2 and the “average number … (Mean ± SD)” value ([1]; 48 h, 50 μg/mL) was 21.6 ± 2.4. For the same compound, the “average number … (Mean ± SD)” value ([1]; 48 h, 100 μg/mL) was 10.1 ± 1.9, the “average number … (Mean ± SD)” value ([1]; 48 h, 200 μg/mL) was 2.6 ± 0.3 and the “average number … (Mean ± SD)” value ([1]; 48 h, 400 μg/mL) was 0.0 ± 0.0. For the same compound, the “average number … (Mean ± SD)” value ([1]; 72 h, 12.5 μg/mL) was 50.4 ± 4.8, the “average number … (Mean ± SD)” value ([1]; 72 h, 25 μg/mL) was 42.3 ± 5.2 and the “average number … (Mean ± SD)” value ([1]; 72 h, 50 μg/mL) was 33.4 ± 3.0. The “average number … (Mean ± SD)” value ([1]; 72 h, 100 μg/mL) was 20.4 ± 2.4, the “average number … (Mean ± SD)” value ([1]; 72 h, 200 μg/mL) was 10.3 ± 0.8 and the “average number … (Mean ± SD)” value ([1]; 72 h, 400 μg/mL) was 0.0 ± 0.0. It also gave an IC50 ([1]; 24 h, read-out: Amastigote (24 h) IC50 ± SD) of 134 ± 18.6 µg/mL (≈ 145 µM), an IC50 ([1]; 48 h, read-out: Amastigote (48h) IC50 ± SD) of 129 ± 14.2 µg/mL (≈ 139 µM) and an IC50 ([1]; 72 h, read-out: Amastigote (72h) IC50 ± SD) of 101 ± 18.3 µg/mL (≈ 110 µM). For the same compound, the “induction of apoptosis in intra-macrophage amastigotes” value [2] was “significant induction of apoptosis”, the CC50 at 24 h ([4]; 24 h) was 792 ± 28.6 µg/mL (≈ 857 µM) and the CC50 at 48 h ([4]; 48 h) was 772 ± 24.6 µg/mL (≈ 836 µM). The CC50 at 72 h ([4]; 72 h) was 749 ± 18.6 µg/mL (≈ 810 µM), the “SI= CC50 Macrophages/IC50 Amastigotes (Selectivity Index)” value ([5]; 24 h) was 5.93 and the “SI = CC50Macrophages/IC50Amastigotes (Selectivity Index)” value ([5]; 72 h) was 7.40. For the same compound, the IC50 ([3]; 24 h, read-out: Promastigote (24 h) IC50 ± SD) was 308 ± 22 µg/mL (≈ 333 µM), the IC50 ([3]; 48 h, read-out: Promastigote (48h) IC50 ± SD) was 294 ± 15.3 µg/mL (≈ 318 µM) and the IC50 ([3]; 72 h, read-out: Promastigote (72h) IC50 ± SD) was 264 ± 20.7 µg/mL (≈ 285 µM).

In the case of `COc1cc(/C=C/C(=O)CC(=O)/C=C/c2ccc(O)c(OC)c2)ccc1O` [curcumin], the “maximum accumulation of S-phase cells” value [6] is given as “about 33%”.

With `COc1ccc(O)c(C(C)(C)C)c1` [BHA, butylated hydroxyanisole] the “IC50 of DPPH radical scavenging” value [7] was 249.3 µg/mL.
